The text below walks through data of patent US3946006A, “Tetrahydrothiadiazinethiones” (Sterling Drug Inc., priority 1974, dated 1976).

Assay in all cases: minimal inhibiting concentration (MIC), filter disc agar plate test
Common to all, as to type: cell-based

The subject of assay [1] is Aspergillus niger. To be noted: A. niger; Sabouraud agar, three days incubation. As for the experimental part:
(§1) The bacteriological effectiveness of the compounds of the invention was determined with reference to minimal inhibiting concentrations, that is, the minimal concentration that will effect complete inhibition of germ growth (MIC). The test procedure is as follows:
(§2) A 1% suspension, botained by homogenizing 500 mg. of the test agent in 50 ml. of 0.5% natrosol solution (natrosol 250 HRPS = hydroxymethylcellulose), is serially diluted with 0.5% natrosol solution to provide suspensions, in sterile test tubes, having concentrations of 0.1, 0.05, 0.01 and 0.005 percent. To ensure accuracy in dilution, the suspensions are mixed with the aid of a mechanical mixer. The dilutions (6 ml.) are added to sterile cups and immediately 10 filter discs (.phi. about 10 mm) are placed on the surface of the liquid in each cup. The filter discs, which slowly sink to the bottom on becoming saturated, are left in the solutions for one hour. 16-Hour old cultures of Escherichia coli, Staphylococcus aureus, Pyoceanus fluorescens and Proteus vulgaris are diluted at the ratio of 1:10 in glucose broth. 1-Week cultures of Penicillium glaucum, Aspergillus niger, Chaetomium globosum, Trichoderma viride, Humicola sp., Scopulariopsis brevicaulis, Pullularia pullulans, Sclerophoma pityophila, Saccharomyces cerevisiae and Candida albicans are harvested by rinsing and diluted 1:10 in nutrient broth.
(§3) Standard II nutrient agar plates, with an addition of lactose and bromothymol blue (BROLAC agar) for bacteria, and Sabouraud agar plates for yeasts and fungi, are dried and labeled (10 Sabouraud agar plates and 4 nutrient agar plates were used per preparation). Of the diluted germ suspensions, 0.05 ml (1 drop) is inoculated onto each plate. Prior to further treatment, the plates are allowed to stand for one-half hour to absorb the germ suspension. Filter discs, corresponding to each of the five dilutions, are placed on the surface of each inoculated plate for each culture (step 1). The plates are examined for zones of inhibition after twenty-four hours incubation in the case of bacteria, and after three days incubation in the case of yeasts and fungi. Antimicrobial activity is indicated by occurance of a zone of inhibition. In the case of bacteria, the purity of the culture can be determined at the same time by lactose fermentation as indicated by color change in the nutrient medium. A visible inhibition ring is designated as negative growth an no inhibition ring as 3+ growth. […] A new dilution series then is prepared, with only one, or at most two, filter discs being placed on the surface of each plate for each culture. Activity is then determined as described above.
(§4) The MIC values, expressed in percent concentration of the test agent, is presented in TAble 1 for compounds of the invention having formula I designated Example 1 (R--O--A = CH2 CH2 OCH3), Example 2 (R--O--A = CH2 CH2 OCH3) and Example 4(R--O--A = CH2 CH2 CH2 OCH2 CH3), and for two known compounds, designated A (3,5-dibenzyl-tetrahydro-2H-1,3,5-thiadiazine-2-thione) and B[3,5-bis(2-hydroxyethyl)-2H-1,3,5-thiadiazine-2-thione].

Assay [2] has as its system Sclerophoma pityophila. To be noted: S. pityophila; Sabouraud agar, three days incubation. As for the experimental part:
as §1, §2, §3, §4

The subject of assay [3] is Pullularia pullulans. The settings on record: P. pullulans; Sabouraud agar, three days incubation. Here is the method:
as §1, §2, §3, §4

In assay [4] the test system is Proteus vulgaris. To be noted: P. vulgaris; nutrient agar, 24 hours incubation. As for the experimental part: as §1, §2, §3, §4
For assay [5], the system named is Escherichia coli. To be noted: E. coli; nutrient agar, 24 hours incubation. Here is the method: as §1, §2, §3, §4
The subject of assay [6] is Candida albicans. The settings on record: C. albicans; Sabouraud agar, three days incubation. As for the experimental part: as §1, §2, §3, §4
In assay [7] the test system is Saccharomyces cerevisiae. To be noted: S. cerevisiae; Sabouraud agar, three days incubation. Here is the method:
as §1, §2, §3, §4

Assay [8] has as its system Pyoceanus fluorescens. To be noted: P. fluorescens; nutrient agar, 24 hours incubation. As for the experimental part:
as §1, §2, §3, §4

Assay [9] relates to Penicillium glaucum. The settings on record: P. glaucum; Sabouraud agar, three days incubation. As for the experimental part: as §1, §2, §3, §4
Assay [10] concerns Staphylococcus aureus. The settings on record: S. aureus; nutrient agar, 24 hours incubation. As for the experimental part: as §1, §2, §3, §4
Assay [11] concerns Scopulariopsis brevicaulis. To be noted: S. brevicaulis; Sabouraud agar, three days incubation. Here is the method:
as §1, §2, §3, §4

Assay [12] concerns Humicola sp. The settings on record: Sabouraud agar, three days incubation. As for the experimental part: as §1, §2, §3, §4
The test system of assay [13] is Trichoderma viride. The settings on record: T. viride; Sabouraud agar, three days incubation. As for the experimental part: as §1, §2, §3, §4
Assay [14] deals with Chaetomium globosum. To be noted: C. globosum; Sabouraud agar, three days incubation. Here is the method:
as §1, §2, §3, §4

Take `CCOCCCN1CSC(=S)N(CCCOCC)C1` [Ex. 4, 3,5-Bis(3-ethoxypropyl)-tetrahydro-2H-1,3,5-thiadiazine-2-thione]: the MIC in assay [1] is listed as < 0.003 % conc; in assay [2], < 0.003 % conc; in assay [3] it was < 0.003 % conc; in [4] it was 0.05 % conc; in assay [5] it was 0.1 % conc; in assay [6] it was 0.01 % conc. For the same compound, the MIC in [7] is listed as < 0.003 % conc; in [8], 0.1 % conc; in assay [9] it was < 0.003 % conc; in assay [10] it was 0.05 % conc.
`OCCN1CSC(=S)N(CCO)C1` [B, 3,5-bis(2-hydroxyethyl)-2H-1,3,5-thiadiazine-2-thione, reference compound]: the MIC in assay [1] is on record as 1 % conc; in assay [2] it was 0.01 % conc; in assay [11], 0.1 % conc; in [3], 0.01 % conc; in assay [4], 1 % conc; in assay [12], 0.1 % conc. Also, the MIC in assay [5] is 1 % conc; in assay [6], 1 % conc; in assay [7], 0.1 % conc; in assay [13] it was 1 % conc; in assay [14], 1 % conc; in [8], 0.1 % conc. For the same compound, the results for the MIC in [9] and in [10] were 1 % conc and 0.05 % conc, respectively.
Consider `S=C1SCN(Cc2ccccc2)CN1Cc1ccccc1` [A, 3,5-dibenzyl-tetrahydro-2H-1,3,5-thiadiazine-2-thione, reference compound], for which the MIC was > 1 % conc in assay [1]; > 1 % conc in assay [2]; > 1 % conc in assay [11]; > 1 % conc in [3]; 1 % conc in assay [4]; > 1 % conc in [12]. Also, the MIC in assay [5] is given as 1 % conc; in [6], > 1 % conc; in [7], > 1 % conc; in [13] it was > 1 % conc; in [14], > 1 % conc; in assay [8] it was 1 % conc. The MIC in assay [9] is recorded as > 1 % conc; in [10] it was 1 % conc.
Turning to `COCCN1CSC(=S)N(CCOC)C1` [Ex. 2, 3,5-Bis(2-methoxyethyl)-tetrahydro-2H-1,3,5-thiadiazine-2-thione], the MIC in assay [1] is 0.1 % conc; in assay [2], < 0.005 % conc; in assay [11] it was < 0.005 % conc; in assay [3], 0.05 % conc; in assay [4], 0.1 % conc; in [12], < 0.005 % conc. The MIC in [5] stood at 0.1 % conc; in assay [6] it was 0.05 % conc; in assay [7], 0.01 % conc; in [13], 0.1 % conc; in [14], 0.01 % conc; in [8], 0.1 % conc. Also, the MIC amounted to 0.05 % conc in [9] and 0.07 % conc in assay [10].
Regarding `COCCCN1CSC(=S)N(CCCOC)C1` [Ex. 1, 3,5-Bis(3-methoxypropyl)-tetrahydro-2H-1,3,5-thiadiazine-2-thione], the MIC in assay [1] was found to be 0.03 % conc; in [2], 0.005 % conc; in assay [11], 0.005 % conc; in [3], 0.005 % conc; in [4] it was 0.1 % conc; in assay [12] it was 0.01 % conc. For the same compound, the MIC is 0.1 % conc in assay [5]; 0.05 % conc in assay [6]; 0.05 % conc in assay [7]; 0.03 % conc in [13]; 0.005 % conc in assay [14]; 0.1 % conc in assay [8]. For the same compound, the MIC is 0.005 % conc in assay [9] and 0.05 % conc in [10].
